This passage reports IC50 and inhibition results from ChEMBL document CHEMBL4765458, “Synthesis and biological evaluation of organoselenium (NSAIDs-SeCN and SeCF) derivatives as potential anticancer agents” (Eur J Med Chem, 2020).

The test system of assay [1] is A549. The experiment in a line: Cytotoxicity against human A549 cells assessed as reduction in cell viability measured after 24 hrs by MTT assay. In kind it is functional, cell-based. The following applies: A549, 24 h. Background: Formazan colour is commonly taken as a measure of viable cells.
Assay [2] has as its system MCF7. The assay is described as follows: Cytotoxicity against human MCF7 cells assessed as reduction in cell viability measured after 24 hrs by MTT assay. It counts as functional, cell-based. The following applies: MCF7, 24 h.
The subject of assay [3] is SW480. The experiment in a line: Cytotoxicity against human SW480 cells assessed as reduction in cell viability measured after 72 hrs by MTT assay. It counts as functional, cell-based. The settings on record: SW480, 72 h.
The subject of assay [4] is SW480. The assay is described as follows: Cytotoxicity against human SW480 cells assessed as reduction in cell viability measured after 48 hrs by MTT assay. In kind it is functional, cell-based. The settings on record: SW480, 48 h.
The test system of assay [5] is MCF7. The assay is described as follows: Cytotoxicity against human MCF7 cells assessed as reduction in cell viability measured after 48 hrs by MTT assay. In kind it is functional, cell-based. The settings on record: MCF7, 48 h.
Assay [6] relates to A549. The assay is described as follows: Cytotoxicity against human A549 cells assessed as reduction in cell viability measured after 72 hrs by MTT assay. The following applies: A549, 72 h. In kind it is functional, cell-based.
Assay [7] has as its system A549. The assay is described as follows: cells. The settings on record: Homo sapiens, A549, 48 h.
The subject of assay [8] is HeLa. The assay is described as follows: Cytotoxicity against human HeLa cells assessed as reduction in cell viability measured after 72 hrs by MTT assay. It counts as functional, cell-based.
Assay [9] relates to HeLa. The experiment in a line: Cytotoxicity against human HeLa cells assessed as reduction in cell viability measured after 24 hrs by MTT assay. In kind it is functional, cell-based.
Assay [10] relates to MCF7. The assay is described as follows: Cytotoxicity against human MCF7 cells assessed as reduction in cell viability measured after 72 hrs by MTT assay. The settings on record: MCF7, 72 h. It counts as functional, cell-based.
Assay [11] relates to SW480. The experiment in a line: Cytotoxicity against human SW480 cells assessed as reduction in cell viability measured after 24 hrs by MTT assay. It counts as functional, cell-based. The settings on record: SW480, 24 h.
The test system of assay [12] is HeLa. The assay is described as follows: Cytotoxicity against human HeLa cells assessed as reduction in cell viability measured after 48 hrs by MTT assay. It counts as functional, cell-based.
A short description of assay [13]: Antioxidant activity assessed as DPPH radical scavenging activity incubated for 30 mins under dark condition relative to control. Also on record: concentration or dose not given beside the values. In kind it is functional. In general terms: The DPPH test is a chemical assay of radical scavenging.

Consider `CC(C(=O)O)c1cccc(C(=O)c2ccccc2)c1` (stereo not drawn) [KETOPROFEN], for which the IC50 in assay [1], in assay [2], in [3], in [4], in assay [5] and in assay [6] was above 50 µM in each case. The half-maximal inhibitory concentration (IC50) in [7], in assay [8], in assay [9], in assay [10], in assay [11] and in assay [12] was above 50 µM throughout.

Turning to `COc1ccc2cc([C@H](C)C(=O)NCCC[Se]C#N)ccc2c1`, the IC50 in [1] is 32.2 µM; in assay [2], 28.3 µM; in assay [3], 30.4 µM; in assay [4], 21.7 µM; in assay [5] it was 27.1 µM; in [6], above 50 µM. The IC50 in [7] is above 50 µM; in [8] it was 35.7 µM; in assay [9] it was 21.5 µM; in [10] it was above 50 µM; in [11] it was 12 µM; in assay [12] it was 24.5 µM. Besides, the inhibition in [13] came out at 22.6%.

As to `COc1ccc2c(c1)c(CC(=O)NCCC[Se]C#N)c(C)n2C(=O)c1ccc(Cl)cc1`, the IC50 in assay [1] is 28.5 µM; in [2], 28.3 µM; in assay [3], 14.2 µM; in assay [4], 18.2 µM; in assay [5], above 50 µM; in assay [6] it was above 50 µM. In addition, the IC50 in assay [7] is 31.2 µM; in [8], 19.6 µM; in assay [9], 32.1 µM; in assay [10], above 50 µM; in assay [11], 16.3 µM; in assay [12] it was 24.4 µM. Further, the inhibition in assay [13] worked out at 49.6%.

Regarding `CCc1cccc2c3c([nH]c12)C(CC)(CC(=O)NCCC[Se]C(F)(F)F)OCC3` (stereo not drawn), the IC50 was 19.4 µM in [1]; 26.2 µM in assay [2]; 19.6 µM in assay [3]; 14.5 µM in assay [4]; 28.4 µM in assay [5]; 26.6 µM in [6]. For the same molecule, the IC50 in assay [7] was 17.7 µM; in [8] it was 25.5 µM; in assay [9], 22.8 µM; in assay [10], 33.5 µM; in assay [11] it was 17.5 µM; in assay [12] it was 14.4 µM. The inhibition in [13] came out at 26.8%.

As to `COc1ccc2c(c1)c(CC(=O)O)c(C)n2C(=O)c1ccc(Cl)cc1` [INDOMETHACIN], the IC50 in assay [1], in assay [2], in assay [3], in assay [4], in [5] and in assay [6] was above 50 µM throughout. The IC50 in assay [7], in [8], in assay [9], in assay [10], in assay [11] and in assay [12] was above 50 µM throughout.

Turning to `Cc1cccc(Nc2ccccc2C(=O)NCCC[Se]C#N)c1C`, the concentration for half-maximal inhibition (IC50) is 37.3 µM in assay [1]; 18.5 µM in assay [2]; 13.2 µM in assay [3]; 9.7 µM in [4]; 11.2 µM in assay [5]; above 50 µM in assay [6]. Further, the IC50 in [7] was above 50 µM; in [8], above 50 µM; in [9] it was 26.5 µM; in assay [10], 7.9 µM; in assay [11], 14.4 µM; in [12] it was 34.3 µM. Besides, in assay [13], the inhibition was found to be 26.5%.

For `CC1=C(CC(=O)NCCC[Se]C(F)(F)F)c2cc(F)ccc2/C1=C\c1ccc([S+](C)[O-])cc1` (stereo not drawn), the half-inhibitory concentration (IC50) in [1] is 9.4 µM; in assay [2] it was 8.2 µM; in assay [3], 10.1 µM; in [4], 11.4 µM; in [5] it was 6.4 µM; in [6], 7.4 µM. Moreover, the IC50 in [7] stood at 11.3 µM; in assay [8], 19.4 µM; in [9] it was 24.3 µM; in assay [10], 10.4 µM; in assay [11], 13.4 µM; in assay [12], 15.1 µM. For the same molecule, in assay [13], the inhibition stood at 32.8%.

`COc1ccc2c(c1)c(CC(=O)NCCC[Se]C(F)(F)F)c(C)n2C(=O)c1ccc(Cl)cc1`: the IC50 came to 18.3 µM in assay [1]; 17.3 µM in assay [2]; 13.1 µM in assay [3]; 16.4 µM in assay [4]; 26 µM in [5]; 30.3 µM in assay [6]. Further, the IC50 in assay [7] amounted to 26.5 µM; in assay [8], 15.6 µM; in assay [9], 30.1 µM; in [10], 35 µM; in [11], 14.6 µM; in assay [12] it was 21.4 µM. Also, the inhibition in assay [13] came out at 25.8%.

In the case of `CC1=C(CC(=O)NCCC[Se]C#N)c2cc(F)ccc2/C1=C\c1ccc([S+](C)[O-])cc1` (stereo not drawn), the IC50 was determined as 11.4 µM in [1]; 13.2 µM in assay [2]; 12.1 µM in assay [3]; 12.4 µM in assay [4]; 8.4 µM in [5]; 9.4 µM in [6]. Also, the half-maximal inhibitory concentration (IC50) amounted to 15.3 µM in [7]; 21.5 µM in [8]; 28.4 µM in assay [9]; 11.3 µM in assay [10]; 15.4 µM in [11]; 16.2 µM in assay [12]. In addition, the inhibition in assay [13] worked out at 21.2%.

Consider `CC(C(=O)NCCC[Se]C#N)c1ccc(-c2ccccc2)c(F)c1` (stereo not drawn), for which the IC50 in [1] was 23.5 µM; in assay [2], 22.4 µM; in [3], 21.7 µM; in [4] it was 30.5 µM; in [5], 32.1 µM; in assay [6], above 50 µM. The IC50 in assay [7] is 32.2 µM; in [8] it was 15.9 µM; in assay [9] it was 36.2 µM; in assay [10], above 50 µM; in assay [11], 23.2 µM; in [12], 32.4 µM. Moreover, in assay [13], the inhibition stood at 16.3%.

On to `N#C[Se]CCCNC(=O)c1ccccc1Nc1cccc(C(F)(F)F)c1`, for which the IC50 came to 26.1 µM in assay [1]; 14.2 µM in assay [2]; 24.7 µM in assay [3]; 17.4 µM in [4]; 16.4 µM in assay [5]; 36.4 µM in [6]. Besides, the IC50 in assay [7] was 28.3 µM; in assay [8], above 50 µM; in assay [9] it was 38.2 µM; in assay [10] it was 13.3 µM; in assay [11] it was 25.2 µM; in assay [12] it was 33.4 µM.

Regarding `C[C@H](C(=O)NCCC[Se]C#N)c1cccc(C(=O)c2ccccc2)c1`, the IC50 was found to be 24.1 µM in [1]; 9.6 µM in [2]; 7.7 µM in assay [3]; 8.4 µM in [4]; 11.3 µM in assay [5]; 32.6 µM in assay [6]. For the same molecule, the half-maximal inhibitory concentration (IC50) in assay [7] is 28.4 µM; in [8], 34.7 µM; in [9], 25.6 µM; in [10] it was 12.5 µM; in assay [11] it was 10.2 µM; in assay [12] it was 18.5 µM. In assay [13], the inhibition worked out at 30.4%.

Consider `Cc1cccc(Nc2ccccc2C(=O)NCCC[Se]C(F)(F)F)c1C`, for which the IC50 is 27.3 µM in [1]; 8.5 µM in [2]; 10.3 µM in [3]; 8.4 µM in [4]; 9.2 µM in assay [5]; above 50 µM in assay [6]. Further, the half-maximal inhibitory concentration (IC50) in assay [7] is 36.8 µM; in [8], above 50 µM; in [9], 24.5 µM; in assay [10], 6.9 µM; in [11], 12.4 µM; in assay [12] it was 28.3 µM. In [13], the inhibition was 38.9%.

For `O=C(NCCC[Se]C(F)(F)F)c1ccccc1Nc1cccc(C(F)(F)F)c1`, the IC50 was determined as 18.1 µM in assay [1]; 7.2 µM in assay [2]; 19.7 µM in [3]; 15.7 µM in assay [4]; 8.4 µM in assay [5]; 26.4 µM in assay [6]. Besides, the IC50 in assay [7] is 21.3 µM; in assay [8] it was above 50 µM; in assay [9], 33.2 µM; in [10] it was 9.3 µM; in assay [11] it was 22.2 µM; in assay [12], 30.3 µM.

Consider `O=c1[nH]cc(F)c(=O)[nH]1` [FLUOROURACIL], for which the IC50 in assay [1] was 25.3 µM; in assay [2], 8.5 µM; in assay [4], 12.4 µM; in assay [5], 10.4 µM; in assay [6], 17.3 µM; in assay [8], 12.7 µM. In addition, the IC50 was 20.6 µM in assay [9], 12.6 µM in assay [10], 15.3 µM in assay [11] and 15.5 µM in [12].

Take `CCc1cccc2c3c([nH]c12)C(CC)(CC(=O)NCCC[Se]C#N)OCC3` (stereo not drawn): the half-inhibitory concentration (IC50) in [1] turned out to be 28.4 µM; in assay [2], 35.2 µM; in [3], 20.6 µM; in assay [4] it was 18.9 µM; in [5] it was 37.4 µM; in [6], 36.6 µM. Besides, the IC50 in assay [7] was 21.7 µM; in assay [8], 28.5 µM; in [9] it was 26.8 µM; in [10] it was above 50 µM; in assay [11], 19.5 µM; in assay [12], 17.4 µM. The inhibition in assay [13] was found to be 24.5%.

`CC1=C(CC(=O)O)c2cc(F)ccc2/C1=C\c1ccc([S+](C)[O-])cc1` (stereo not drawn): the IC50 in assay [1], in assay [2], in assay [3], in assay [4], in [5] and in assay [6] was above 50 µM in each case. Besides, the IC50 in assay [7], in [8], in assay [9], in [10], in assay [11] and in [12] was above 50 µM throughout.

By IC50 is commonly meant the concentration needed to halve the response being measured. One may read the inhibition as the percentage by which the read-out fell short of the control.
